Source: PubChem BioAssay AID2060886 (Molecular Pharmacology Branch, DTP, NCI, 2025)
pIC50: −log10 of the molar value. Values belong to the molecule of their own block, whether it stands above or below them.

System: 653999-131-R-J2-PDC complex spheroids, growth inhibition
Experiment: Anticancer human tumor 653999-131-R-J2-PDC patient-derived lung adenocarcinoma cell line growth inhibition [RAS]
Details: for pIC50: curve of first compound; for viability, T/C: stronger effect = lower value
Outline: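 Multi-cell-type spheroids: tumor cells plus HUVEC endothelial cells and mesenchymal stem cells. RAS-pathway inhibitors were combined with targeted agents, each dosed in half-log steps down from clinical Cmax, or from 10 microM when Cmax was unknown.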

[1] = second compound 0.000949 µM, first compound 0.0316 µM
[2] = second compound 0.000949 µM, first compound 0.1 µM
[3] = second compound 0.000949 µM, first compound 0.316 µM
[4] = second compound 0.000949 µM, first compound 1 µM
[5] = second compound 0.000949 µM, first compound 3.16 µM
[6] = second compound 0.000949 µM, first compound 10 µM
[7] = second compound 0.003 µM, first compound 0.0316 µM
[8] = second compound 0.003 µM, first compound 0.1 µM
[9] = second compound 0.003 µM, first compound 0.316 µM
[10] = second compound 0.003 µM, first compound 1 µM
[11] = second compound 0.003 µM, first compound 3.16 µM
[12] = second compound 0.003 µM, first compound 10 µM
[13] = second compound 0.00949 µM, first compound 0.0316 µM
[14] = second compound 0.00949 µM, first compound 0.1 µM
[15] = second compound 0.00949 µM, first compound 0.316 µM
[16] = second compound 0.00949 µM, first compound 1 µM
[17] = second compound 0.00949 µM, first compound 3.16 µM
[18] = second compound 0.00949 µM, first compound 10 µM
[19] = second compound 0.03 µM, first compound 0.0316 µM
[20] = second compound 0.03 µM, first compound 0.1 µM
[21] = second compound 0.03 µM, first compound 0.316 µM
[22] = second compound 0.03 µM, first compound 1 µM
[23] = second compound 0.03 µM, first compound 3.16 µM
[24] = second compound 0.03 µM, first compound 10 µM
[25] = second compound 0.0949 µM, first compound 0.0316 µM
[26] = second compound 0.0949 µM, first compound 0.1 µM
[27] = second compound 0.0949 µM, first compound 0.316 µM
[28] = second compound 0.0949 µM, first compound 1 µM
[29] = second compound 0.0949 µM, first compound 3.16 µM
[30] = second compound 0.0949 µM, first compound 10 µM
[31] = second compound 0.3 µM, first compound 0.0316 µM
[32] = second compound 0.3 µM, first compound 0.1 µM
[33] = second compound 0.3 µM, first compound 0.316 µM
[34] = second compound 0.3 µM, first compound 1 µM
[35] = second compound 0.3 µM, first compound 3.16 µM
[36] = second compound 0.3 µM, first compound 10 µM
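Further: spheroids exposed to the agents for seven days before the readout.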

pIC50 (second compound 0.000949 µM): > 7.50
pIC50 (second compound 0.003 µM): > 7.50
pIC50 (second compound 0.00949 µM): > 7.50
pIC50 (second compound 0.03 µM): > 7.50
pIC50 (second compound 0.0949 µM): > 7.50
pIC50 (second compound 0.3 µM): > 7.50
Compound: CC(=O)OC12COC1CC(O)C1(C)C(=O)C(O)C3=C(C)C(OC(=O)C(O)C(NC(=O)OC(C)(C)C)c4ccccc4)CC(O)(C(OC(=O)c4ccccc4)C21)C3(C)C (stereo not drawn) + CCn1c(-c2cc(N3CCN(C)CC3)cnc2C(C)OC)c2c3cc(ccc31)-c1csc(n1)CC(NC(=O)C1CC1C)C(=O)N1CCCC(N1)C(=O)OCC(C)(C)C2
viability, T/C [1]: 38.1%
viability, T/C [2]: 39.4%
viability, T/C [3]: 42.8%
viability, T/C [4]: 43.5%
viability, T/C [5]: 48.8%
viability, T/C [6]: 51.6%
viability, T/C [7]: 29.9%
viability, T/C [8]: 27%
viability, T/C [9]: 27.6%
viability, T/C [10]: 35.4%
viability, T/C [11]: 30.9%
viability, T/C [12]: 31.7%
viability, T/C [13]: 14.9%
viability, T/C [14]: 21%
viability, T/C [15]: 20.7%
viability, T/C [16]: 21.9%
viability, T/C [17]: 21.7%
viability, T/C [18]: 19.1%
viability, T/C [19]: 13.3%
viability, T/C [20]: 13.2%
viability, T/C [21]: 12.8%
viability, T/C [22]: 13.2%
viability, T/C [23]: 14%
viability, T/C [24]: 13.1%
viability, T/C [25]: 11.5%
viability, T/C [26]: 12.1%
viability, T/C [27]: 13.8%
viability, T/C [28]: 10.6%
viability, T/C [29]: 12.6%
viability, T/C [30]: 12.2%
viability, T/C [31]: 8.97%
viability, T/C [32]: 10.1%
viability, T/C [33]: 12%
viability, T/C [34]: 13.4%
viability, T/C [35]: 12.2%
viability, T/C [36]: 12.3%

pIC50 (second compound 0.000949 µM): < 5.00
pIC50 (second compound 0.003 µM): < 5.00
pIC50 (second compound 0.00949 µM): > 7.50
pIC50 (second compound 0.03 µM): > 7.50
pIC50 (second compound 0.0949 µM): > 7.50
pIC50 (second compound 0.3 µM): > 7.50
Compound: Cc1nc(N2CCC3(CC2)COC(C)C3N)c(CO)nc1Sc1ccnc(N)c1Cl (stereo not drawn) + CCn1c(-c2cc(N3CCN(C)CC3)cnc2C(C)OC)c2c3cc(ccc31)-c1csc(n1)CC(NC(=O)C1CC1C)C(=O)N1CCCC(N1)C(=O)OCC(C)(C)C2
viability, T/C [1]: 80.8%
viability, T/C [2]: 91.1%
viability, T/C [3]: 76.1%
viability, T/C [4]: 80.9%
viability, T/C [5]: 64.2%
viability, T/C [6]: 76.8%
viability, T/C [7]: 60.9%
viability, T/C [8]: 47.7%
viability, T/C [9]: 64%
viability, T/C [10]: 54.8%
viability, T/C [11]: 47%
viability, T/C [12]: 54.1%
viability, T/C [13]: 43.1%
viability, T/C [14]: 34.9%
viability, T/C [15]: 37.4%
viability, T/C [16]: 41.1%
viability, T/C [17]: 24.6%
viability, T/C [18]: 29.7%
viability, T/C [19]: 36.7%
viability, T/C [20]: 30.2%
viability, T/C [21]: 21%
viability, T/C [22]: 19.1%
viability, T/C [23]: 17.3%
viability, T/C [24]: 15.9%
viability, T/C [25]: 21.4%
viability, T/C [26]: 27.6%
viability, T/C [27]: 14.4%
viability, T/C [28]: 14.2%
viability, T/C [29]: 11%
viability, T/C [30]: 11.9%
viability, T/C [31]: 23.4%
viability, T/C [32]: 18.5%
viability, T/C [33]: 20%
viability, T/C [34]: 12.7%
viability, T/C [35]: 10.1%
viability, T/C [36]: 7.03%

pIC50 (second compound 0.000949 µM): < 5.00
pIC50 (second compound 0.003 µM): 7.18
pIC50 (second compound 0.00949 µM): > 7.50
pIC50 (second compound 0.03 µM): > 7.50
pIC50 (second compound 0.0949 µM): > 7.50
pIC50 (second compound 0.3 µM): > 7.50
Compound: NC1c2ccccc2OC12CCN(c1cnc3c(N4CCCc5ncccc54)n[nH]c3n1)CC2 (stereo not drawn) + CCn1c(-c2cc(N3CCN(C)CC3)cnc2C(C)OC)c2c3cc(ccc31)-c1csc(n1)CC(NC(=O)C1CC1C)C(=O)N1CCCC(N1)C(=O)OCC(C)(C)C2
viability, T/C [1]: 67%
viability, T/C [2]: 60.7%
viability, T/C [3]: 55.2%
viability, T/C [4]: 59.3%
viability, T/C [5]: 65.6%
viability, T/C [6]: 63.4%
viability, T/C [7]: 60.7%
viability, T/C [8]: 40.6%
viability, T/C [9]: 40.3%
viability, T/C [10]: 49.5%
viability, T/C [11]: 41.3%
viability, T/C [12]: 42.1%
viability, T/C [13]: 40.9%
viability, T/C [14]: 34%
viability, T/C [15]: 28.5%
viability, T/C [16]: 33.9%
viability, T/C [17]: 24.7%
viability, T/C [18]: 24%
viability, T/C [19]: 24.1%
viability, T/C [20]: 20.3%
viability, T/C [21]: 12.9%
viability, T/C [22]: 9.46%
viability, T/C [23]: 12.2%
viability, T/C [24]: 11.1%
viability, T/C [25]: 17.6%
viability, T/C [26]: 17%
viability, T/C [27]: 12.7%
viability, T/C [28]: 7.56%
viability, T/C [29]: 5.76%
viability, T/C [30]: 6.14%
viability, T/C [31]: 16.5%
viability, T/C [32]: 10.2%
viability, T/C [33]: 7.36%
viability, T/C [34]: 6.93%
viability, T/C [35]: 7.17%
viability, T/C [36]: 4.26%

pIC50 (second compound 0.000949 µM): 7.85
pIC50 (second compound 0.003 µM): 8.20
pIC50 (second compound 0.00949 µM): > 8.50
pIC50 (second compound 0.03 µM): > 8.50
pIC50 (second compound 0.0949 µM): > 8.50
pIC50 (second compound 0.3 µM): > 8.50
Compound: Nc1ccn(C2OC(CO)C(O)C2(F)F)c(=O)n1 (stereo not drawn) + CCn1c(-c2cc(N3CCN(C)CC3)cnc2C(C)OC)c2c3cc(ccc31)-c1csc(n1)CC(NC(=O)C1CC1C)C(=O)N1CCCC(N1)C(=O)OCC(C)(C)C2
viability, T/C (second compound 0.000949 µM, first compound 0.00316 µM): 67.6%
viability, T/C (second compound 0.000949 µM, first compound 0.01 µM): 57%
viability, T/C [1]: 34.4%
viability, T/C [2]: 34.4%
viability, T/C [3]: 25.9%
viability, T/C [4]: 23%
viability, T/C (second compound 0.003 µM, first compound 0.00316 µM): 59.1%
viability, T/C (second compound 0.003 µM, first compound 0.01 µM): 43.1%
viability, T/C [7]: 31.8%
viability, T/C [8]: 20.8%
viability, T/C [9]: 16.2%
viability, T/C [10]: 19.7%
viability, T/C (second compound 0.00949 µM, first compound 0.00316 µM): 45.6%
viability, T/C (second compound 0.00949 µM, first compound 0.01 µM): 30.9%
viability, T/C [13]: 25%
viability, T/C [14]: 19.3%
viability, T/C [15]: 18.2%
viability, T/C [16]: 15.1%
viability, T/C (second compound 0.03 µM, first compound 0.00316 µM): 37.3%
viability, T/C (second compound 0.03 µM, first compound 0.01 µM): 29.4%
viability, T/C [19]: 20.3%
viability, T/C [20]: 14.7%
viability, T/C [21]: 12.8%
viability, T/C [22]: 11.6%
viability, T/C (second compound 0.0949 µM, first compound 0.00316 µM): 26.7%
viability, T/C (second compound 0.0949 µM, first compound 0.01 µM): 30.3%
viability, T/C [25]: 18.8%
viability, T/C [26]: 16.7%
viability, T/C [27]: 11.7%
viability, T/C [28]: 11%
viability, T/C (second compound 0.3 µM, first compound 0.00316 µM): 25.9%
viability, T/C (second compound 0.3 µM, first compound 0.01 µM): 24.5%
viability, T/C [31]: 20.7%
viability, T/C [32]: 18.4%
viability, T/C [33]: 13.9%
viability, T/C [34]: 12.8%
